Data set [1] concerns Human immunodeficiency virus 1. The data set can be described thus: Antiviral activity against HIV1 3B infected in human MT4 cells assessed as inhibition of virus-induced cytopathic effect by MTT assay. The format is functional, organism-based. To be noted: Human immunodeficiency virus 1, 3B.
Data set [2] has as its target T1, Human immunodeficiency virus type 1 integrase (Human immunodeficiency virus 1, UniProt Q7ZJM1). The data set can be described thus: Inhibition of HIV1 integrase using U5A/U5B double-stranded DNA as substrate by ELISA.
Data set [3] can be described thus: Cytotoxicity against human MT4 cells by MTT assay. The format is cell-based.
The target of data set [4] is T1, Human immunodeficiency virus type 1 integrase. The data set can be described thus: Inhibition of HIV1 integrase using U5A/U5B double-stranded DNA as substrate by ELISA in presence of BSA.

T1 sequence (Q7ZJM1 whole entry): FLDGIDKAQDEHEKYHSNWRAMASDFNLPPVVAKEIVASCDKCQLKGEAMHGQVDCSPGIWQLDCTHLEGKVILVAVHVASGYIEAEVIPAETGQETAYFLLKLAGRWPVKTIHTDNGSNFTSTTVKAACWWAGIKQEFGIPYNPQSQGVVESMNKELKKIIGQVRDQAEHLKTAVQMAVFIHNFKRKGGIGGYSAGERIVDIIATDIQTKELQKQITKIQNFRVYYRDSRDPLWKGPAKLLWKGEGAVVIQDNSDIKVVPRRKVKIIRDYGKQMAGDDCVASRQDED

Take `O=C(O)C(O)C(O)(Cc1ccc(O)c(O)c1)C(=O)O` (racemic): the EC50 in data set [1] was over 22 µM. Further, the half-maximal inhibitory concentration (IC50) in data set [2] amounted to 0.25 µM; in data set [4], 17 µM. In addition, in data set [3], the midpoint of cytotoxicity, the CC50, lay at 22 µM.
